The values below come from ChEMBL document CHEMBL3868582, “Discovery, pharmacology, and clinical profile of omadacycline, a novel aminomethylcycline antibiotic” (Bioorg Med Chem, 2016).

In brackets after ≈: the same amount, converted by molar mass. A value given as a limit tells only on which side of the number the result lay.

The test system of series [1] is Clostridioides difficile. Kind of series: Antibacterial activity against Clostridium difficile infected in hamster model assessed as median survival time. In kind it is functional.
Series [2] deals with Haemophilus influenzae. The series is described as follows: Antibacterial activity against Haemophilus influenzae PBS981 infected in CD-1 mouse assessed as reduction in bacterial load in lungs administered intravenously as single dose after 2 hrs of infection measured after 24 hrs post treatment. The format is functional. The following applies: PBS981, iv.
Series [3] has as its system Haemophilus influenzae. The series is described as follows: Antibacterial activity against Haemophilus influenzae PBS981. The format is functional.
Series [4] deals with Streptococcus pneumoniae. Kind of series: Antibacterial activity against Streptococcus pneumoniae PBS1399 infected in mouse assessed as protection against bacterial infection by measuring mouse survival administered intravenously as single dose after 2 hrs of infection measured on day 7. In kind it is functional. The following applies: PBS1399, iv, read-out: PD50.
In series [5] the test system is Streptococcus pneumoniae. Kind of series: Antibacterial activity against Streptococcus pneumoniae PBS1399. The format is functional.
The nature of series [6]: Drug excretion in human urine at 36.6 uCi, po administered as single dose. The conditions noted are these: in vivo. In kind it is ADME, organism-based.

`CCC[C@@H]1C[C@@H](C(=O)N[C@@H]([C@H]2O[C@H](SC)[C@H](O)[C@@H](O)[C@H]2O)[C@H](C)Cl)N(C)C1` [CLINDAMYCIN]: the MST in series [1] was 4 days.

`O=C(O)c1cn(C2CC2)c2cc(N3CCNCC3)c(F)cc2c1=O` [CIPROFLOXACIN]: in series [2], the ED50 was found to be 1.16 mg/kg. Further, in series [3], the MIC was under 0.06 µg/mL.

Consider `CN[C@H](CC(C)C)C(=O)N[C@H]1C(=O)N[C@@H](CC(N)=O)C(=O)N[C@H]2C(=O)N[C@H]3C(=O)N[C@H](C(=O)N[C@H](C(=O)O)c4cc(O)cc(O)c4-c4cc3ccc4O)[C@H](O)c3ccc(c(Cl)c3)Oc3cc2cc(c3O[C@@H]2O[C@H](CO)[C@@H](O)[C@H](O)[C@H]2O[C@H]2C[C@](C)(N)[C@H](O)[C@H](C)O2)Oc2ccc(cc2Cl)[C@H]1O` [VANCOMYCIN], for which the MST in series [1] was determined as 2 days. Further, the ED50 in series [4] was found to be 3.3 mg/kg. The MIC in series [5] came to 0.5 µg/mL (≈ 0.345 µM).

For the compound `CN(C)c1ccc(O)c2c1C[C@H]1C[C@H]3[C@H](N(C)C)C(O)=C(C(N)=O)C(=O)[C@@]3(O)C(O)=C1C2=O` [MINOCYCLINE], the ED50 in series [4] came out at 3.44 mg/kg. For the same compound, the MIC in series [5] was 0.25 µg/mL (≈ 0.546 µM).

On to `C[C@H]1c2cccc(O)c2C(=O)C2=C(O)[C@]3(O)C(=O)C(C(N)=O)=C(O)[C@@H](N(C)C)[C@@H]3[C@@H](O)[C@@H]21.O` [DOXYCYCLINE], for which, in series [4], the ED50 is 10.3 mg/kg. For the same compound, the MIC in series [5] was found to be 0.125 µg/mL.

For the compound `CC[C@H]1OC(=O)[C@H](C)[C@@H](O[C@H]2C[C@@](C)(OC)[C@@H](O)[C@H](C)O2)[C@H](C)[C@@H](O[C@@H]2O[C@H](C)C[C@H](N(C)C)[C@H]2O)[C@](C)(O)C[C@@H](C)CN(C)[C@H](C)[C@@H](O)[C@]1(C)O` [AZITHROMYCIN], in series [4], the ED50 worked out at 3.31 mg/kg. Moreover, the MIC in series [5] is 0.03 µg/mL (≈ 0.0401 µM).

The compound `CN(C)c1cc([14CH2]NCC(C)(C)C)c(O)c2c1C[C@H]1C[C@H]3[C@@H](N(C)C)C(O)=C(C(N)=O)C(=O)[C@@]3(O)C(O)=C1C2=O` yielded a Drug excretion in series [6] of 14.4 %ID.

On to `CCCCCCCCCC(=O)N[C@@H](Cc1c[nH]c2ccccc12)C(=O)N[C@@H](CC(N)=O)C(=O)N[C@@H](CC(=O)O)C(=O)N[C@@H]1C(=O)NCC(=O)N[C@@H](CCCN)C(=O)N[C@@H](CC(=O)O)C(=O)N[C@H](C)C(=O)N[C@@H](CC(=O)O)C(=O)NCC(=O)N[C@H](CO)C(=O)N[C@@H]([C@H](C)CC(=O)O)C(=O)N[C@@H](CC(=O)c2ccccc2N)C(=O)O[C@@H]1C` [DAPTOMYCIN], for which the ED50 in series [4] was over 100 mg/kg. Besides, the MIC in series [5] was found to be 0.25 µg/mL (≈ 0.154 µM).

`CC(=O)NC[C@H]1CN(c2ccc(N3CCOCC3)c(F)c2)C(=O)O1` [LINEZOLID]: the ED50 in series [4] worked out at 38.8 mg/kg.

Regarding `CO/N=C(\C(=O)N[C@@H]1C(=O)N2C(C(=O)O)=C(CSc3nc(=O)c(O)nn3C)CS[C@H]12)c1csc(N)n1` [CEFTRIAXONE], the ED50 is 0.37 mg/kg in series [4] and 0.1 mg/kg in series [2]. The MIC in series [5] is 0.015 µg/mL (≈ 0.027 µM); in series [3], under 0.06 µg/mL.

Turning to `C[C@H]1COc2c(N3CCN(C)CC3)c(F)cc3c(=O)c(C(=O)O)cn1c23.C[C@H]1COc2c(N3CCN(C)CC3)c(F)cc3c(=O)c(C(=O)O)cn1c23.O` [LEVOFLOXACIN], the ED50 in series [4] is over 18 mg/kg; in series [2], 2.4 mg/kg. Further, in series [3], the MIC is under 0.06 µg/mL.
